Results taken from US9617237B2, “Partially saturated tricyclic compounds and methods of making and using same” (Zafgen, Inc., priority 2011, dated 2017).
pIC50: −log10 of the molar value.

Target: T1, recombinant human MetAP2 (Homo sapiens, UniProt P50579)
T1 construct: made in house; host or cells: Sf9 insect cells
Experiment: Inhibition of recombinant human MetAP2 activity (fluorescence, MAS substrate, amino acid oxidase/Amplex red)
Format: biochemical
Details: manganese enzyme; 0.75 mM Methionine-Alanine-Serine (MAS) substrate; 30 minutes at 25° C.; pH 7.5; 1% DMSO
Experimental: Compounds are tested for their capacity to inhibit recombinant human MetAP2 activity using the following assay.
Human recombinant MetAP2 expressed in Sf9 cells followed by affinity purification and EDTA treatment to remove endogenous active site cation was dialysed against MnCl2 to produce the manganese enzyme used in the assay. The assay was carried out for 30 minutes at 25° C. in 50 mM HEPES buffer containing 100 mM NaCl, pH 7.5 the presence of 0.75 mM Methionine-Alanine-Serine (MAS) substrate and 50 μg/ml amino acid oxidase using a dilution of purified MetAP2 giving >3-fold signal: noise. Cleavage of the substrate by MetAP2 and oxidation of free methionine by amino acid oxidase was detected and quantified using fluorescence generated by Amplex red (10-acetyl-3,7-dihydroxyphenoxazine) in combination with horseradish peroxidase which detects H2O2 released during the oxidation step. The fluorescent signal was detected using a multiwell fluorimeter. Compounds were diluted in DMSO prior to addition to assay buffer, the final DMSO concentration in the assay being 1%.
IC50 values are calculated using the XLfit software package (version 2.0.5).

T1 sequence (P50579 whole entry): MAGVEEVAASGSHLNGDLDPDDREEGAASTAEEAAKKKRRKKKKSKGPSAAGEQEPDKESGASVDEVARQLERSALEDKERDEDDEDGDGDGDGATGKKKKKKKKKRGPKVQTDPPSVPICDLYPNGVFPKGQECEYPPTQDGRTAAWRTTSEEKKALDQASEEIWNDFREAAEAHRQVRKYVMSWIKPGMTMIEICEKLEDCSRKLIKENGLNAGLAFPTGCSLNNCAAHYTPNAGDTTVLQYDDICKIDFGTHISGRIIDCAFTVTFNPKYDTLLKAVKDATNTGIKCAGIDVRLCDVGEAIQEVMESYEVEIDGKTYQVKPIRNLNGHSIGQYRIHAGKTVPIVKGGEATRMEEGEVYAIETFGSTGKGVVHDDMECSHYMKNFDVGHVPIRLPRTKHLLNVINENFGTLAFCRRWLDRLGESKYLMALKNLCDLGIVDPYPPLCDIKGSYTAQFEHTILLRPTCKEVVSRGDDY

`CCN1CC[C@H](CNc2ccccc2S(=O)(=O)Nc2ccc3c(c2C(=O)O)OC[C@@H]2C[C@H]32)C1` (mixture of isomers) [(1aRS,7bSR)-5-{2-[((R)-1-Ethylpyrrolidin-3-ylmethyl)amino]-benzenesulfonylamino}-1,1a,2,7b-tetrahydrocyclopropa-[c]chromene-4-carboxylic acid] and `CCN1CC[C@@H](CNc2ccccc2S(=O)(=O)Nc2ccc3c(c2C(=O)O)OC[C@@H]2C[C@H]32)C1` (mixture of isomers) [(1aRS,7bSR)-5-{2-[((S)-1-Ethylpyrrolidin-3-ylmethyl)amino]-benzenesulfonylamino}-1,1a,2,7b-tetrahydrocyclopropa-[c]chromene-4-carboxylic acid] fall in the same range of pIC50: 6.30 to 7.30 for the first, 6.30 to 7.30 for the second.

First: CCN1CCCC1C(=O)NCc1cc(F)ccc1S(=O)(=O)Nc1ccc2c(c1C(=O)O)OCC1CC21 (mixture of isomers) [(1aRS,7bSR)-5-{2-[((S)-1-Ethylpyrrolidin-2-yl)cabonyl-aminomethyl]-4-fluorobenzenesulfonylamino}-1,1a,2,7b-tetrahydrocyclopropa[c]chromene-4-carboxylic acid]
Second: CCN1CCC[C@@H]1C(=O)N(C)Cc1cc(F)ccc1S(=O)(=O)Nc1ccc2c(c1C(=O)O)OCC1CC21 (mixture of isomers) [(1aRS,7bSR)-5-(2-{N-[((R)-1-Ethylpyrrolidine-2-yl)carbonyl]-N-methylaminomethyl}-4-fluorobenzenesulfonylamino)-1,1a,2,7b-tetrahydrocyclopropa[c]chromene-4-carboxylic acid]
The pIC50 of the first is higher: > 7.30 for the first, 6.30 to 7.30 for the second. The first is the more potent here.

Compared with `CCN1CC[C@H](Nc2ccccc2S(=O)(=O)Nc2ccc3c(c2C(=O)O)OC[C@@H]2C[C@H]32)C1` (mixture of isomers) [(1aRS,7bSR)-5-{2-[((S)-1-Ethylpyrrolidin-3-yl)amino]-benzenesulfonylamino}-1,1a,2,7b-tetrahydrocyclopropa-[c]chromene-4-carboxylic acid], `O=C(O)c1c(NS(=O)(=O)c2ccccc2N[C@H]2CN3CCC2CC3)ccc2c1OCC1CC21` (mixture of isomers) [(1aRS,7bSR)-5-{2-[((R)-1-Azabicyclo[2.2.2]oct-3-yl)amino]benzenesulfonyl-amino}-1,1a,2,7b-tetrahydrocyclopropa[c]chromene-4-carboxylic acid] is higher in pIC50: 6.30 to 7.30 for the first, > 7.30 for the second.

`CCN1CC[C@H](NC(=O)Cc2cc(F)ccc2S(=O)(=O)Nc2ccc3c(c2C(=O)O)OC[C@@H]2C[C@H]32)C1` (mixture of isomers) [(1aRS,7bSR)-5-{2-[((S)-1-Ethylpyrrolidin-3-ylcarbamoyl)-methyl]-4-fluoro-benzenesulfonyl-amino}-1,1a,2,7b-tetrahydrocyclopropa-[c]chromene-4-carboxylic acid] and `CCN1CC[C@H](C(=O)NCc2cc(F)ccc2S(=O)(=O)Nc2ccc3c(c2C(=O)O)OCC2CC32)C1` (mixture of isomers) [(1aRS,7bSR)-5-(2-{[((S)-1-ethylpyrrolidine-3-carbonyl)amino]methyl}-4-fluoro-benzenesulfonylamino)-1,1a,2,7b-tetrahydrocyclopropa[c]chromene-4-carboxylic acid] fall in the same range of pIC50: 6.30 to 7.30 for the first, 6.30 to 7.30 for the second.

First: CCNC/C=C\c1cc(F)ccc1S(=O)(=O)Nc1ccc2c(c1C(=O)O)OC[C@@H]1C[C@H]21 (racemic) [(1aRS,7bSR)-5-[2((Z)-3-Ethylaminoprop-1-enyl)-4-fluoro-benzenesulfonylamino]-1,1a,2,7b-tetrahydrocyclopropa-[c]chromene-4-carboxylic acid]
Second: O=C(O)c1c(NS(=O)(=O)c2ccc(F)cc2/C=C\CN2CCC2)ccc2c1OC[C@@H]1C[C@H]21 (racemic) [(1aRS,7bSR)-5-{2[(Z)-3-(Azetidin-1-yl)prop-1-enyl]-4-fluorobenzene-sulfonylamino}-1,1a,2,7b-tetrahydro-cyclopropa[c]chromene-4-carboxylic acid]
The pIC50 of the first is higher: > 7.30 for the first, 6.30 to 7.30 for the second. The first is the more potent here.

`CCN1CC(c2cc(F)ccc2S(=O)(=O)Nc2ccc3c(c2C(=O)O)OC[C@@H]2C[C@H]32)C1` (racemic) [(1aRS,7bSR)-5-[2-(1-Ethylazetidin-3-yl)-4-fluorobenzene-sulfonylamino]-1,1a,2,7b-tetrahydro-cyclopropa[c]chromene-4-carboxylic acid] and `CCN1CC(CCc2cc(F)ccc2S(=O)(=O)Nc2ccc3c(c2C(=O)O)OC[C@@H]2C[C@H]32)C1` (racemic) [(1aRS,7bSR)-5-{2-[2-(1-Ethylazetidin-3-yl)ethyl]-4-fluoro-benzenesulfonyl-amino}-1,1a,2,7b-tetrahydrocyclopropa-[c]chromene-4-carboxylic acid] fall in the same range of pIC50: 6.30 to 7.30 for the first, 6.30 to 7.30 for the second.

First: CCN1CCC(Cc2cc(F)ccc2S(=O)(=O)Nc2ccc3c(c2C(=O)O)OC[C@@H]2C[C@H]32)CC1 (racemic) [(1aRS,7bSR)-5-[2-(1-Ethylpiperidin-4-ylmethyl)-4-fluoro-benzenesulfonylamino]-1,1a,2,7b-tetrahydrocyclopropa-[c]chromene-4-carboxylic acid]
Second: CCN1CCN(CCc2cc(F)ccc2S(=O)(=O)Nc2ccc3c(c2C(=O)O)OC[C@@H]2C[C@H]32)CC1 (racemic) [(1aRS,7bSR)-5-{2-[2-(4-Ethylpiperazin-1-yl)-ethyl]-4-fluorobenzenesulfonylamino}-1,1a,2,7b-tetrahydrocyclopropa[c]chromene-4-carboxylic acid]
The pIC50 of the first is higher: > 7.30 for the first, 6.30 to 7.30 for the second. The first is the more potent here.

`CN(C)CCCNc1ccccc1S(=O)(=O)Nc1ccc2c(c1C(=O)O)OC[C@@H]1C[C@H]21` (racemic) [(1aRS,7bSR)-5-[2-(3-Dimethylaminopropylamino)benzene-sulfonylamino]-1,1a,2,7b-tetrahydrocyclopropa[c]chromene-4-carboxylic acid] and `CN(C)CCCCNc1ccccc1S(=O)(=O)Nc1ccc2c(c1C(=O)O)OC[C@@H]1C[C@H]21` (racemic) [(1aRS,7bSR)-5-[2-(4-Dimethylaminobutylamino)benzene-sulfonylamino]-1,1a,2,7b-tetrahydrocyclopropa[c]chromene-4-carboxylic acid] cannot be ordered by pIC50: > 7.30 for the first, > 7.30 for the second.

First: CN(C)CCCNC(=O)c1ccccc1S(=O)(=O)Nc1ccc2c(c1C(=O)O)OC[C@@H]1C[C@H]21 (racemic) [(1aRS,7bSR)-5-[2-(3-Dimethylaminopropylcarbamoyl)benzene-sulfonylamino]-1,1a,2,7b-tetrahydrocyclopropa[c]chromene-4-carboxylic acid]
Second: CN(C)CCCCCNc1ccccc1S(=O)(=O)Nc1ccc2c(c1C(=O)O)OC[C@@H]1C[C@H]21 (racemic) [(1aRS,7bSR)-5-[2-(5-Dimethylaminopentylamino)benzene-sulfonylamino]-1,1a,2,7b-tetrahydrocyclopropa[c]chromene-4-carboxylic acid]
The pIC50 of the first is lower: 6.30 to 7.30 for the first, > 7.30 for the second.

`CN(C)CCCCNc1cc(F)ccc1S(=O)(=O)Nc1ccc2c(c1C(=O)O)OC[C@@H]1C[C@H]21` (racemic) [(1aRS,7bSR)-5-[2-(4-Dimethylaminobutylamino)-4-fluoro-benzenesulfonyl-amino]-1,1a,2,7b-tetrahydrocyclopropa-[c]chromene-4-carboxylic acid] and `CN(C)CCCC(=O)Nc1cc(F)ccc1S(=O)(=O)Nc1ccc2c(c1C(=O)O)OC[C@@H]1C[C@H]21` (racemic) [(1aRS,7bSR)-5-[2-(4-Dimethylaminobutyrylamino)-4-fluorobenzenesulfonyl-amino]-1,1a,2,7b-tetrahydrocyclopropa-[c]chromene-4-carboxylic acid] fall in the same range of pIC50: 6.30 to 7.30 for the first, 6.30 to 7.30 for the second.

`CCN1CCN(Cc2cc(F)ccc2S(=O)(=O)Nc2ccc3c(c2C(=O)O)OC[C@@H]2C[C@H]32)C(=O)C1` (racemic) [(1aRS,7bSR)-5-[2-(4-Ethyl-2-oxopiperazin-1-ylmethyl)-4-fluorobenzene-sulfonylamino]-1,1a,2,7b-tetrahydrocyclopropa-[c]chromene-4-carboxylic acid] and `O=C(O)c1c(NS(=O)(=O)c2ccc(F)cc2CCN2CCCC2)ccc2c1OC[C@@H]1C[C@H]21` (racemic) [(1aRS,7bSR)-5-{2-[2-(Pyrrolidin-1-yl)-ethyl]-4-fluorobenzene-sulfonylamino}-1,1a,2,7b-tetrahydrocyclopropa[c]chromene-4-carboxylic acid] fall in the same range of pIC50: 6.30 to 7.30 for the first, 6.30 to 7.30 for the second.

`CCN(CC)C/C(C)=C\c1cc(F)ccc1S(=O)(=O)Nc1ccc2c(c1C(=O)O)OC[C@@H]1C[C@H]21` (racemic) [(1aRS,7bSR)-5-[2-((Z)-3-Diethylamino-2-methylprop-1-enyl)-4-fluorobenzene-sulfonylamino]-1,1a,2,7b-tetrahydrocyclopropa-[c]chromene-4-carboxylic acid] and `CCN(CC)C/C=C\c1cc(F)ccc1S(=O)(=O)Nc1ccc2c(c1C(=O)O)OCC1C2C1(F)F` (racemic) [(1aRS,7bSR)-5-[2-((Z)-3-Diethylaminoprop-1-enyl)-4-fluorobenzene-sulfonylamino]-1,1-difluoro-1,1a,2,7b-tetrahydrocyclopropa[c]chromene-4-carboxylic acid] cannot be ordered by pIC50: > 7.30 for the first, > 7.30 for the second.

First: O=C(O)c1c(NS(=O)(=O)c2ccccc2N[C@@H]2CN3CCC2CC3)ccc2c1OCC1CC21 (mixture of isomers) [(1aRS,7bSR)-5-{2-[((S)-1-Azabicyclo[2.2.2]oct-3-yl)amino]benzenesulfonyl-amino}-1,1a,2,7b-tetrahydrocyclopropa[c]chromene-4-carboxylic acid]
Second: CN(C)CCCCN(C)c1ccccc1S(=O)(=O)Nc1ccc2c(c1C(=O)O)OC[C@@H]1C[C@H]21 (racemic) [(1aRS,7bSR)-5-{2-[N-(4-Dimethylaminobutyl)-N-methylamino]-benzenesulfonyl-amino}-1,1a,2,7b-tetrahydrocyclopropa-[c]chromene-4-carboxylic acid]
The pIC50 of the first is higher: 6.30 to 7.30 for the first, < 6.30 for the second. The first is the more potent here.
